Changes are numbered by the printed parent chain. pIC50, pKi: −log10 of the molar value. “And” between values parts separate entries of the source, which are not always exact repeats. Equal values may be shown once.
Legend:
rat steroid 5α-reductase [1] = biological target: T1, rat steroid 5α-reductase (Rattus norvegicus, UniProt P24008); experiment: steroid 5α-reductase activity/inhibition in vitro, homogenates of COS cells expressing rat cDNA (Table III); conditions: apparent Ki, rat enzyme; two [14C]testosterone concentrations; Dixon plots
T1 sequence (P24008 5-259): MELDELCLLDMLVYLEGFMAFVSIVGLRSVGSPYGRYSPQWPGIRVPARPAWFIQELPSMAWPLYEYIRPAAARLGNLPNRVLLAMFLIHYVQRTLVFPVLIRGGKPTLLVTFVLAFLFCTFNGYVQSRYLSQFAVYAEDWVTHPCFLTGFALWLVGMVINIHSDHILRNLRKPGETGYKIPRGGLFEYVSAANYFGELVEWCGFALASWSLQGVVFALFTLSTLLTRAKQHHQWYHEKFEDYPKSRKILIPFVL
Excerpt: (§1) Expression Vector Construction. A rat steroid 5α-reductase cDNA corresponding to nucleotides 1-1962 (see Example 1) was ligated into the pCMV4 expression vector (Andersson et al., 1989b). A human cDNA corresponding to nucleotides 1 to 842 of FIG. 7 was initially ligated into pCMV4. […] After amplification, the product was ligated into pCMV4.
(§2) Expression of Steroid 5α-Reductase 1 cDNAs in COS Cells. Simian COS-M6 cells were transfected as described by Andersson et al. (1989b). The assay of steroid 5α-reductase activity in intact cells was carried out as described in Example 1 except that [^14 C]-labeled steroid dissolved in ethanol were added to the transfected cell medium and subsequent organic extractions were carried out with dichloromethane. TLC and liquid scintillation counting were performed as described in Example 1.
(§3) To assay steroid 5α-reductase activity in vitro, cells were harvested 48 hours after transfection, washed once with phosphate buffered saline and either frozen in liquid N2 or homogenized directly with a Polytron in 10 mM potassium phosphate (pH 7.4), 150 mM KCl and 1 mM EDTA, at a protein concentration of 2 mg/ml. A typical assay contained 10 to 50 μg of cell homogenate protein in 0.5 ml of 0.1M potassium phosphate buffer (pH 6.6, rat enzyme; pH 7.0, human enzyme). Steroids were added in 5 μl ethanol, and the reaction was initiated by the addition of NADPH to a final concentration of 2-5 mM. Incubations were carried out for 10 min at 37° C. and terminated by the addition of 5 ml dichloromethane. Organic execrations and thin-layer chromatography analysis were as described above.
(§4) The apparent Km and Vmax values in this system were determined in vitro with five different steroid substrates (Table III).
(§5) The apparent Ki values were then determined for 4-aza-steroid (4-MA and MK-906) inhibition of 5α-reductases expressed in COS cells. […] The data obtained were analyzed using Dixon plots to determine the type of inhibition and the apparent Ki value (Dixon et al., 1979).
(§6) COS call transfaction, cell homogonate preparation, and enzyme assay were
(§7) carried out as described in Materials and Methods. Each Km value
(§8) represents the average of at least two experiments carried out on
(§9) different days using cell lysates prepared from different transfections.

[2] = biological target: T2, human steroid 5α-reductase 1 (Homo sapiens, UniProt P18405); experiment: steroid 5α-reductase activity/inhibition in vitro, homogenates of COS cells expressing human steroid 5α-reductase 1 cDNA (Table III); conditions: apparent Ki, human enzyme; two [14C]testosterone concentrations; Dixon plots
T2 sequence (P18405 1-259): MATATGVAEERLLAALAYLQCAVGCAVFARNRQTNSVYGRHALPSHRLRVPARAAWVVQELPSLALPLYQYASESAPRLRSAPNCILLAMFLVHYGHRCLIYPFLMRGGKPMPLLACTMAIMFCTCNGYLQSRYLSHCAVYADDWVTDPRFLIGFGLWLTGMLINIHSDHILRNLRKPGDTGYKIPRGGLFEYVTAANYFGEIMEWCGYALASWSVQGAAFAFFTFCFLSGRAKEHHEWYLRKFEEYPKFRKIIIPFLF
Excerpt: as §1, §2, §3, §4, §5, §6, §7, §8, §9

[3] = biological target: T3, human prostate 5α-reductase (prostate extract) (Homo sapiens, UniProt P31213); experiment: finasteride inhibition of 5α-reductase in human prostate extract; type: biochemical
T3 construct: Prostate tissue was obtained from subjects undergoing surgical treatment for benign prostatic hyperplasia; from tissue; host or cells: human prostate (benign prostatic hyperplasia), membrane extract
T3 sequence (P31213 1-254): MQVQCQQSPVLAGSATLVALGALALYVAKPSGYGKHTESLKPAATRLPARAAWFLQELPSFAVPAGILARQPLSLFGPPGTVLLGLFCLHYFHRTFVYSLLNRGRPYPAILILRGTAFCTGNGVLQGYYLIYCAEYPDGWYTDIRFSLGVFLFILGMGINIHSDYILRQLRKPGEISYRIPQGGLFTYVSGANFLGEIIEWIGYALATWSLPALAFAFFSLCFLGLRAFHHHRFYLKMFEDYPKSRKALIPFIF

human 5α-reductase 1 = biological target: T4, human 5α-reductase 1 (Homo sapiens, UniProt P18405); experiment: finasteride inhibition of 5α-reductase 1 expressed in human embryonic kidney 293 cells (FIG. 15B); type: biochemical
T4 construct: Human 5α-reductase 1 is 259 residues long; expressed in transfected cells; host or cells: human embryonic kidney 293 cells
T4 sequence (P18405 1-259): T2 sequence (P18405 1-259)
Experimental: (§10) FIGS. 15A-15B. Characterization of expressed human 5α-reductase isozymes with regard to pH optima and finasteride inhibition. Expression plasmids containing the 5α-reductase 1 or 2 cDNAs (FIGS. 7 and 13, respectively) were transfected into human embryonic kidney 293 cells. […] Reductase enzyme activity obtained in extracts of transfected human embryonic kidney 293 cells in the absence of inhibitor was defined as 100%. In both panels, conversion into dihydrotestosterone was determined, after 10 minute incubations, by thin layer chromatography. Protein concentrations in cell extracts were measured as in Lowry, 1951.
(§11) Steroid 5α-Reductase Assay. […] Termination, organic extraction and TLC were performed as described in Example 1, using a chloroform-ethyl acetate (3:1, v/v) mobile phase in the TLC.
(§12) The properties of the two human steroid 5α-reductase isozymes were also compared directly, following expression in human embryonic kidney 293 cells.

human 5α-reductase 2 [4] = biological target: T5, human 5α-reductase 2 (Homo sapiens, UniProt P31213); experiment: finasteride inhibition of 5α-reductase 2 expressed in human embryonic kidney 293 cells (FIG. 15B); type: biochemical
T5 construct: predicted to be a hydrophobic polypeptide of 254 amino acids; expressed in transfected cells; host or cells: human embryonic kidney 293 cells, pCMV expression vector
T5 sequence (P31213 1-254 L89V): T3 sequence (P31213 1-254) with L89V
Experimental: as §10, §11, §12

human 5α-reductase 2 [5] = biological target: T6, human 5α-reductase 2 (Homo sapiens, UniProt P31213, L89V); experiment: as above; type: biochemical; conditions: 5α-reductase 2, 293 cells
T6 construct: predicted to be a hydrophobic polypeptide of 254 amino acids; expressed in transfected cells; host or cells: human embryonic kidney 293 cells, pCMV expression vector
T6 sequence (P31213 1-254 L89V): T3 sequence (P31213 1-254) with L89V
Experimental: as §10, §11, §12

[6] = test system: prostate extract and steroid 5α-reductase 1; experiment: finasteride inhibition of mixed aliquots of prostate extract and steroid 5α-reductase 1 extract; type: biochemical, human; conditions: aliquots with equivalent 5α-reductase activity mixed
steroid 5α-reductase = conditions: Liang et al., 1985; cited from earlier work
[7] = test system: major human prostate 5α-reductase enzyme; conditions: Liang et al., 1985; cited from earlier work
[8] = biological target: T2, human steroid 5α-reductase 1; experiment: finasteride inhibition of steroid 5α-reductase 1 expressed in COS cells (Example 6); type: biochemical; set-up: Human 5α-reductase 1 is 259 residues long; expressed in transfected cells; host or cells: simian COS-M6 cells, pCMV4 vector
rat steroid 5α-reductase [9] = biological target: T1, rat steroid 5α-reductase; experiment: steroid 5α-reductase assay in intact transfected COS cells, rat cDNA; type: cell-based; set-up: the open reading frame would encode a hydrophobic protein of 255 amino acids; expressed in transfected cells; host or cells: simian COS-M6 cells, pCMV4 vector; conditions: rat enzyme expressed in COS cells; 37° C., 2 hr
Excerpt: as §1, §2
COS cells were transiently transfected with expression vectors harboring the rat or human steroid 5α-reductase 1 cDNAs, or with the pCMV4 vector alone.
IC50 values for MK-906 and 4-MA inhibition of 5α-reductases expressed in COS cells were also determined. […] See Example 6 and FIG. 15, for further analysis of 4-aza-steroid inhibition.

rat steroid 5α-reductase [10] = biological target: T1, rat steroid 5α-reductase; set-up: the open reading frame would encode a hydrophobic protein of 255 amino acids; expressed in transfected cells; host or cells: simian COS-M6 cells, pCMV4 vector; conditions: simian COS cells; Andersson & Russell, 1990; cited from earlier work

Question: With CC(C)(C)NC(=O)[C@H]1CC[C@H]2[C@@H]3CC[C@H]4NC(=O)C=C[C@]4(C)[C@H]3CC[C@]12C [MK-906, 17β-N-t-butylcarbamoyl-4-aza-5α-androst-1-en-3-one] as the compound, how does the pKi (rat steroid 5α-reductase [1]) read?
Answer: 8.30 to 8.52 and 8.52 and 8.40 and 8.30

Question: What about the pKi [2] of the same compound?
Answer: 6.21 to 6.47 and 6.47 and 6.42 and 6.21

Question: What about the pIC50 [3] of the same compound?
Answer: 8.00

Question: What about the pIC50 (human 5α-reductase 1) of the same compound?
Answer: ~6.05

Question: What about the pKi (human 5α-reductase 1; 5α-reductase 1, 293 cells) of the same compound?
Answer: ~6.64

Question: And the pIC50 (human 5α-reductase 2 [4])?
Answer: ~7.52

Question: What about the pKi (human 5α-reductase 2 [5]) of the same compound?
Answer: ~8.30

Question: What about the “inhibition curve of mixed extracts” value [6] of the same compound?
Answer: biphasic

Question: What about the type of inhibition (steroid 5α-reductase) of the same compound?
Answer: competitive inhibitors

Question: And the type of inhibition [7]?
Answer: competitive inhibitor

Question: What about the pIC50 [8] of the same compound?
Answer: 5.00

Question: And the “IC50 inhibition, relative potency of MK-906 and 4-MA” value (rat steroid 5α-reductase [9])?
Answer: equipotent

Question: What about the “inhibition of rat steroid 5α-reductase” value (rat steroid 5α-reductase [10]) of the same compound?
Answer: inhibited

Source: patent US5679521A, “Steroid 5A-reductases” (priority 1995, dated 1997)
